This passage reports EC50 results from US20250122218A1, “MODULATORS OF CYSTIC FIBROSIS TRANSMEMBRANE CONDUCTANCE REGULATOR” (Vertex Pharmaceuticals Incorporated, priority 2022, published 2025).

SMILES strings stand for the structures.

As a reminder, the EC50 is the concentration at which the effect is half-maximal.

The target in the assay is T1, CFTR in F508del/MF-HBE cells (Homo sapiens, UniProt P13569, DEL508-508).
T1 construct: human bronchial epithelial (HBE) cells derived from CF subjects heterozygous for F508del and a minimal function CFTR mutation; endogenous in cells; host or cells: primary human bronchial epithelial cells from CF subjects (F508del/MF-HBE)
T1 sequence (P13569 with tags, fused parts or gaps DEL508-508): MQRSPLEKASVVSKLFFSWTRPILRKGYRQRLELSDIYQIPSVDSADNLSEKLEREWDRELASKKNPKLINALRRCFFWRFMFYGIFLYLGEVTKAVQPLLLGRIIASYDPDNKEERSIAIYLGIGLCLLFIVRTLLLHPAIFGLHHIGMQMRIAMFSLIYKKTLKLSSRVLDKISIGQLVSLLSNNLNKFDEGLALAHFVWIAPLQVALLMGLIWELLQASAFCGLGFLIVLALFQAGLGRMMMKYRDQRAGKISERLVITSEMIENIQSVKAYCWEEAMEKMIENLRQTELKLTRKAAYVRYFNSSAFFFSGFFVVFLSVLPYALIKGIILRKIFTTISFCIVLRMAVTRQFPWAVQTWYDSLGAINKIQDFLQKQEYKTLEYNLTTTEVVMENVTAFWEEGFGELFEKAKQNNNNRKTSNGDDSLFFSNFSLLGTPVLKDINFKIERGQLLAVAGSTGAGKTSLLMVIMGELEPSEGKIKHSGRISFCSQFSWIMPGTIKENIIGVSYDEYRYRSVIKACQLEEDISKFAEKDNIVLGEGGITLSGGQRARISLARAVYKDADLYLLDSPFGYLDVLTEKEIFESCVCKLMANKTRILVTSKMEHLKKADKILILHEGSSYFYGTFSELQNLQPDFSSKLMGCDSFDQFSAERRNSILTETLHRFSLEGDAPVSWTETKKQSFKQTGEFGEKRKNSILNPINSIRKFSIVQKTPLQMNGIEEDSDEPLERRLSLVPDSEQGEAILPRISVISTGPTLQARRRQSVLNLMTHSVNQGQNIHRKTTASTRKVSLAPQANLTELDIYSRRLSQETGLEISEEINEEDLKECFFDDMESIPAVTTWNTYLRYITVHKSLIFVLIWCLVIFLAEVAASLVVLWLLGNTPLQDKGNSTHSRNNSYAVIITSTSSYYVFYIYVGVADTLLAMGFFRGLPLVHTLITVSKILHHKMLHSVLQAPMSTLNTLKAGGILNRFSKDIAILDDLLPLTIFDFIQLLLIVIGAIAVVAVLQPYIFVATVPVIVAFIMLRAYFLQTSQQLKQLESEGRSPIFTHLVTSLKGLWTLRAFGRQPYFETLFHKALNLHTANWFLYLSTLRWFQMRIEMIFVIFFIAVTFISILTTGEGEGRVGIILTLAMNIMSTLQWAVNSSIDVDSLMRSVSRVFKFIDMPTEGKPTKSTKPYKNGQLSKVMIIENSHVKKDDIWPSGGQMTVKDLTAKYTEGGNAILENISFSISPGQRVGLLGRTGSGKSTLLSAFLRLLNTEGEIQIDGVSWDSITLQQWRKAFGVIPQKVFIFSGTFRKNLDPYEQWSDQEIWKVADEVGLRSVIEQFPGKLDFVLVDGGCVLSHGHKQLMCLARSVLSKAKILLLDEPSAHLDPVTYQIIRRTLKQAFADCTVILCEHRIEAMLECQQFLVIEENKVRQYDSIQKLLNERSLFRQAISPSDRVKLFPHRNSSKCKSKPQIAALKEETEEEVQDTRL
The assay can be described thus: Ussing chamber assay of CFTR-mediated short-circuit currents (identification of potentiator compounds). The class given is cell-based. The conditions noted are these: potentiator incubated 18-24 hours at 37° C. in combination with 10 μM corrector, in the presence of 20% human serum, CFTR-mediated ISC. A digest of the protocol:
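F508del/MF-HBE cultures were preincubated 18-24 h at 37° C with potentiator plus 10 μM of a fixed corrector compound in 20% human serum; compounds were kept present during measurement. ISC was recorded under voltage clamp (0 mV, 37° C, amiloride apical) and taken as the 20 μM forskolin peak minus the current after inhibitor cocktail.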
As for `CC1(C)CCCC[C@](O)(C(F)(F)F)C2=NN=C(O2)c2nc(c(C(F)(F)F)cc2N)C(=O)N(Cc2ccc3c(c2)OC(F)(F)O3)C1` [Compound 124, (6R)-18-amino-13-[(2,2-difluoro-1,3-benzodioxol-5-yl)methyl]-6-hydroxy-11,11-dimethyl-6,16-bis (trifluoromethyl)-20-oxa-3,4,13,19-tetrazatricyclo [13.3.1.12,5]icosa-1(19),2,4,15,1 7-pentaen-14-one], the EC50 was less than 500 nM.

For the molecule `Nc1cc(C(F)(F)F)c2nc1-c1nnc(o1)[C@@](O)(C(F)(F)F)CCCCCN(C13CCC(CC1)C3)C2=O` [Compound 125, (6R)-17-amino-6-hydroxy-12-norbornan-1-yl-6,15-bis (trifluoromethyl)-19-oxa-3,4,12,18-tetrazatricyclo [12.3.1.12,5] nonadeca-1(18),2,4,14,1 6-pentaen-13-one], the EC50 was less than 500 nM.

On to `Nc1cc(C(F)(F)F)c2nc1-c1nnc(o1)[C@@](O)(C(F)(F)F)CCCCCN(c1cccnc1)C2=O` [Compound 126, (6R)-17-amino-6-hydroxy-12-(3-pyridyl)-6,15-bis (trifluoromethyl)-19-oxa-3,4,12,18-tetrazatricyclo [12.3.1.12,5] nonadeca-1(18),2,4,14,1 6-pentaen-13-one], for which the EC50 is greater than 1000 nM.

With `Cc1ccccc1CN1CCCCC[C@](O)(C(F)(F)F)C2=NN=C(O2)c2nc(c(C(F)(F)F)cc2N)C1=O` [Compound 127, (6R)-17-amino-6-hydroxy-12-(0-tolylmethyl)-6,15-bis (trifluoromethyl)-19-oxa-3,4,12,18-tetrazatricyclo [12.3.1.12,5] nonadeca-1(18),2,4,14,1 6-pentaen-13-one], the EC50 was less than 500 nM.

For the molecule `CC(C)n1cc(CN2CCCCC[C@](O)(C(F)(F)F)C3=NN=C(O3)c3nc(c(C(F)(F)F)cc3N)C2=O)cn1` [Compound 128, (6R)-17-amino-6-hydroxy-12-[(1-isopropylpyrazol-4-yl)methyl]-6,1-bis (trifluoromethyl)-19-oxa-3,4,12,18-tetrazatricyclo [12.3.1.12,5] nonadeca-1(18),2,4,14,1 6-pentaen-13-one], the EC50 is less than 500 nM.

Turning to `CC(C)n1nccc1CN1CCCCC[C@](O)(C(F)(F)F)C2=NN=C(O2)c2nc(c(C(F)(F)F)cc2N)C1=O` [Compound 129, (6R)-17-amino-6-hydroxy-12-[(2-isopropylpyrazol-3-yl)methyl]-6,15-bis (trifluoromethyl)-19-oxa-3,4,12,18-tetrazatricyclo [12.3.1.12,5] nonadeca-1(18),2,4,14,1 6-pentaen-13-one], the EC50 is less than 500 nM.

For `Nc1cc(C(F)(F)F)c2nc1-c1nnc(o1)[C@@](O)(C(F)(F)F)CCCCCN(CC1CCOCC1)C2=O` [Compound 132, (6R)-17-amino-6-hydroxy-12-(tetrahydropyran-4-ylmethyl)-6,15-bis (trifluoromethyl)-19-oxa-3,4,12,18-tetrazatricyclo [12.3.1.12,5] nonadeca-1(18),2,4,14,1 6-pentaen-13-one], the EC50 was less than 500 nM.

For the molecule `Cc1ccc(CN2CCCCC[C@](O)(C(F)(F)F)C3=NN=C(O3)c3nc(c(C(F)(F)F)cc3N)C2=O)cc1` [Compound 134, (6R)-17-amino-6-hydroxy-12-(p-tolylmethyl)-6,15-bis (trifluoromethyl)-19-oxa-3,4,12,18-tetrazatricyclo [12.3.1.12,5] nonadeca-1(18),2,4,14,1 6-pentaen-13-one], the EC50 is less than 500 nM.

As for `Nc1cc(C(F)(F)F)c2nc1-c1nnc(o1)[C@@](O)(C(F)(F)F)CCCCCN(Cc1ccc(C(F)(F)F)cc1)C2=O` [Compound 135, (6R)-17-amino-6-hydroxy-6,15-bis (trifluoromethyl)-12-[[4-(trifluoromethyl)phenyl]methyl]-19-oxa-3,4,12,18-tetrazatricyclo [12.3.1.12,5] nonadeca-1(18),2,4,14,1 6-pentaen-13-one], the EC50 was less than 500 nM.

Turning to `Nc1cc(C(F)(F)F)c2nc1-c1nnc(o1)[C@@](O)(C(F)(F)F)CCCCCN(Cc1ccc(F)cc1)C2=O` [Compound 136, (6R)-17-amino-12-[(4-fluorophenyl)methyl]-6-hydroxy-6,15-bis (trifluorom ethyl)-19-oxa-3,4,12,18-tetrazatricyclo [12.3.1.12,5] nonadeca-1(18),2,4,14,1 6-pentaen-13-one], the EC50 is less than 500 nM.

Turning to `Nc1cc(C(F)(F)F)c2nc1-c1nnc(o1)[C@@](O)(C(F)(F)F)CCCCCN(CCc1ccccc1)C2=O` [Compound 137, (6R)-17-amino-6-hydroxy-12-(2-phenylethyl)-6,15-bis (trifluoromethyl)-19-oxa-3,4,12,18-tetrazatricyclo [12.3.1.12,5] nonadeca-1(18),2,4,14,1 6-pentaen-13-one], the EC50 was less than 500 nM.

As for `COc1cccc(CN2CCCCC[C@](O)(C(F)(F)F)C3=NN=C(O3)c3nc(c(C(F)(F)F)cc3N)C2=O)c1` [Compound 138, (6R)-17-amino-6-hydroxy-12-[(3-methoxyphenyl)methyl]-6,15-bis (trifluorom ethyl)-19-oxa-3,4,12,18-tetrazatricyclo [12.3.1.12,5] nonadeca-1(18),2,4,14,1 6-pentaen-13-one], the EC50 was less than 500 nM.

As to `CC(C)c1cccc(CN2CCCCC[C@](O)(C(F)(F)F)C3=NN=C(O3)c3nc(c(C(F)(F)F)cc3N)C2=O)c1` [Compound 139, (6R)-17-amino-6-hydroxy-12-[(3-isopropylphenyl)methyl]-6,15-bis (trifluoromethyl)-19-oxa-3,4,12,18-tetrazatricyclo [12.3.1.12,5] nonadeca-1(18),2,4,14,1 6-pentaen-13-one], the EC50 is less than 500 nM.

For `Cc1cccnc1CN1CCCCC[C@](O)(C(F)(F)F)C2=NN=C(O2)c2nc(c(C(F)(F)F)cc2N)C1=O` [Compound 140, (6R)-17-amino-6-hydroxy-12-[(3-methyl-2-pyridyl)methyl]-6,15-bis (trifluoromethyl)-19-oxa-3,4,12,18-tetrazatricyclo [12.3.1.12,5] nonadeca-1(18),2,4,14,1 6-pentaen-13-one], the EC50 is less than 500 nM.

For the molecule `Nc1cc(C(F)(F)F)c2nc1-c1nnc(o1)[C@@](O)(C(F)(F)F)CCCCCN(Cc1ccccc1OC(F)(F)F)C2=O` [Compound 141, (6R)-17-amino-6-hydroxy-12-[[2-(trifluoromethoxy)phenyl]methyl]-6,15-bis (trifluoromethyl)-19-oxa-3,4,12,18-tetrazatricyclo [12.3.1.12,5] nonadeca-1(18),2,4,14,1 6-pentaen-13-one], the EC50 is less than 500 nM.

In the case of `Nc1cc(C(F)(F)F)c2nc1-c1nnc(o1)[C@@](O)(C(F)(F)F)CCCCCN(Cc1cccc(OC(F)(F)F)c1)C2=O` [Compound 142, (6R)-17-amino-6-hydroxy-12-[[3-(trifluoromethoxy)phenyl]methyl]-6,15-bis (trifluoromethyl)-19-oxa-3,4,12,18-tetrazatricyclo [12.3.1.12,5] nonadeca-1(18),2,4,14,1 6-pentaen-13-one], the EC50 is less than 500 nM.

For `CC(C)Oc1ccc(CN2CCCCC[C@](O)(C(F)(F)F)C3=NN=C(O3)c3nc(c(C(F)(F)F)cc3N)C2=O)cc1` [Compound 143, (6R)-17-amino-6-hydroxy-12-[(4-isopropoxyphenyl)methyl]-6,15-bis (trifluoromethyl)-19-oxa-3,4,12,18-tetrazatricyclo [12.3.1.12,5] nonadeca-1(18),2,4,14,1 6-pentaen-13-one], the EC50 is less than 500 nM.

For `Nc1cc(C(F)(F)F)c2nc1-c1nnc(o1)[C@@](O)(C(F)(F)F)CCCCCN(Cc1ccc(Cl)cc1)C2=O` [Compound 144, (6R)-17-amino-12-[(4-chlorophenyl)methyl]-6-hydroxy-6,15-bis (trifluoromethyl)-19-oxa-3,4,12,18-tetrazatricyclo [12.3.1.12,5] nonadeca-1(18),2,4,14,1 6-pentaen-13-one], the EC50 is less than 500 nM.

On to `Nc1cc(C(F)(F)F)c2nc1-c1nnc(o1)[C@@](O)(C(F)(F)F)CCCCCN(Cc1ccc(F)cc1F)C2=O` [Compound 145, (6R)-17-amino-12-[(2,4-difluorophenyl)methyl]-6-hydroxy-6,15-bis (trifluoromethyl)-19-oxa-3,4,12,18-tetrazatricyclo [12.3.1.12,5] nonadeca-1(18),2,4,14,1 6-pentaen-13-one], for which the EC50 is less than 500 nM.

Consider `Nc1cc(C(F)(F)F)c2nc1-c1nnc(o1)[C@@](O)(C(F)(F)F)CCCCCN(Cc1ccc(F)c(F)c1)C2=O` [Compound 146, (6R)-17-amino-12-[(3,4-difluorophenyl)methyl]-6-hydroxy-6,15-bis (trifluoromethyl)-19-oxa-3,4,12,18-tetrazatricyclo [12.3.1.12,5] nonadeca-1(18),2,4,14,1 6-pentaen-13-one], for which the EC50 was less than 500 nM.

Turning to `Nc1cc(C(F)(F)F)c2nc1-c1nnc(o1)[C@@](O)(C(F)(F)F)CCCCCN(Cc1ccc(C(F)(F)F)nc1)C2=O` [Compound 147, (6R)-17-amino-6-hydroxy-6,15-bis (trifluoromethyl)-12-[[6-(trifluoromethyl)-3-pyridyl]methyl]-19-oxa-3,4,12,18-tetrazatricyclo [12.3.1.12,5] nonadeca-1(18),2,4,14,1 6-pentaen-13-one], the EC50 is less than 500 nM.

Consider `CCCc1cccc(CN2CCCCC[C@](O)(C(F)(F)F)C3=NN=C(O3)c3nc(c(C(F)(F)F)cc3N)C2=O)c1` [Compound 148, (6R)-17-amino-6-hydroxy-12-[(3-propylphenyl)methyl]-6,15-bis (trifluoromethyl)-19-oxa-3,4,12,18-tetrazatricyclo [12.3.1.12,5] nonadeca-1(18),2,4,14,1 6-pentaen-13-one], for which the EC50 is less than 500 nM.
